Laboratory results: the supplement of paper PMC10307832

Key:
Test in all cases: relative viability (nuclei count vs DMSO), 5 days (fraction); higher = more cells survive
A-427 = system: A-427
Outline: (§1)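 For relative viability, nuclei counts in treated wells were divided by those in vehicle wells. Lung cancer cell lines had been pin-tool dosed in 1536-well plates the day after seeding and cultured for 5 days, then fixed and stained in one step (final 0.05% Triton X-100, 1% formaldehyde, 1 ug/ml Hoechst) and imaged at 4×. Doses were one drug alone or a fixed anchor-drug dose plus five library-drug doses (not always all listed) in √10 steps, and values are duplicate-plate medians.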

ChaGo-K-1 = system: ChaGo-K-1
Outline: as §1

EKVX = system: EKVX
Outline: as §1

EMC-BAC-2 = system: EMC-BAC-2
Outline: as §1

H3255 = system: H3255
Outline: as §1

HCC-366 = system: HCC-366
Outline: as §1

LK-2 = system: LK-2
Outline: as §1

LOU-NH91 = system: LOU-NH91
Outline: as §1

NCI-H1666 = system: NCI-H1666
Outline: as §1

NCI-H1734 = system: NCI-H1734
Outline: as §1

NCI-H1755 = system: NCI-H1755
Outline: as §1

NCI-H1975 = system: NCI-H1975
Outline: as §1

NCI-H2170 = system: NCI-H2170
Outline: as §1

NCI-H23 = system: NCI-H23
Outline: as §1

NCI-H441 = system: NCI-H441
Outline: as §1

NCI-H596 = system: NCI-H596
Outline: as §1

PC-3 [JPC-3] = system: PC-3 [JPC-3]
Outline: as §1

SW 900 = system: SW 900
Outline: as §1

Compound `COc1nc(C)cnc1NS(=O)(=O)c1cccnc1-c1ccc(-c2nnco2)cc1` [Zibotentan] + NC(=O)Nc1cc(-c2cccc(F)c2)sc1C(=O)N[C@H]1CCCNC1 [AZD7762] (partner 0.2 µM) has a relative viability (A-427; first compound 0.08 µM) of 0.905, a relative viability (A-427; first compound 0.253 µM) of 0.666 and a relative viability (A-427; first compound 0.8 µM) of 0.655. For the same compound, the relative viability (A-427; first compound 2.53 µM) was 0.834, the relative viability (ChaGo-K-1; first compound 0.08 µM) was 0.912 and the relative viability (ChaGo-K-1; first compound 0.253 µM) was 0.842. The relative viability (ChaGo-K-1; first compound 0.8 µM) was 0.756, the relative viability (ChaGo-K-1; first compound 2.53 µM) was 0.927 and the relative viability (EKVX; first compound 0.08 µM) was 0.742. For the same compound, the relative viability (EKVX; first compound 0.253 µM) was 0.648, the relative viability (EKVX; first compound 0.8 µM) was 0.718 and the relative viability (EKVX; first compound 2.53 µM) was 0.766. The relative viability (EMC-BAC-2; first compound 0.08 µM) was 1.08, the relative viability (EMC-BAC-2; first compound 0.8 µM) was 1.08 and the relative viability (EMC-BAC-2; first compound 2.53 µM) was 1.16. For the same compound, the relative viability (H3255; first compound 0.08 µM) was 0.901, the relative viability (H3255; first compound 0.253 µM) was 0.87 and the relative viability (H3255; first compound 0.8 µM) was 0.825. It also gave a relative viability (H3255; first compound 2.53 µM) of 0.799, a relative viability (HCC-366; first compound 0.08 µM) of 0.28 and a relative viability (HCC-366; first compound 0.253 µM) of 0.208. The relative viability (HCC-366; first compound 0.8 µM) was 0.103, the relative viability (HCC-366; first compound 2.53 µM) was 0.343 and the relative viability (LK-2; first compound 0.08 µM) was 0.479. It also gave a relative viability (LK-2; first compound 0.253 µM) of 0.327, a relative viability (LK-2; first compound 0.8 µM) of 0.441 and a relative viability (LK-2; first compound 2.53 µM) of 0.282. The relative viability (LOU-NH91; first compound 0.08 µM) was 0.838, the relative viability (LOU-NH91; first compound 0.253 µM) was 0.702 and the relative viability (LOU-NH91; first compound 0.8 µM) was 0.773. The relative viability (LOU-NH91; first compound 2.53 µM) was 0.795, the relative viability (NCI-H1666; first compound 0.08 µM) was 0.866 and the relative viability (NCI-H1666; first compound 0.253 µM) was 0.795. For the same compound, the relative viability (NCI-H1666; first compound 0.8 µM) was 0.898, the relative viability (NCI-H1666; first compound 2.53 µM) was 0.791 and the relative viability (NCI-H1734; first compound 0.08 µM) was 0.629. It also gave a relative viability (NCI-H1734; first compound 0.253 µM) of 0.521, a relative viability (NCI-H1734; first compound 0.8 µM) of 0.499 and a relative viability (NCI-H1734; first compound 2.53 µM) of 0.55. For the same compound, the relative viability (NCI-H1755; first compound 0.08 µM) was 0.452, the relative viability (NCI-H1755; first compound 0.253 µM) was 0.464 and the relative viability (NCI-H1755; first compound 0.8 µM) was 0.387. It also gave a relative viability (NCI-H1755; first compound 2.53 µM) of 0.471, a relative viability (NCI-H1975; first compound 0.08 µM) of 0.767 and a relative viability (NCI-H1975; first compound 0.253 µM) of 0.626. The relative viability (NCI-H1975; first compound 0.8 µM) was 0.728, the relative viability (NCI-H1975; first compound 2.53 µM) was 0.659 and the relative viability (NCI-H2170; first compound 0.08 µM) was 0.979. It also gave a relative viability (NCI-H2170; first compound 0.253 µM) of 0.881, a relative viability (NCI-H2170; first compound 0.8 µM) of 0.675 and a relative viability (NCI-H2170; first compound 2.53 µM) of 0.881. The relative viability (NCI-H23; first compound 0.08 µM) was 0.224, the relative viability (NCI-H23; first compound 0.253 µM) was 0.238 and the relative viability (NCI-H23; first compound 0.8 µM) was 0.196. It also gave a relative viability (NCI-H23; first compound 2.53 µM) of 0.26, a relative viability (NCI-H441; first compound 0.08 µM) of 1.3 and a relative viability (NCI-H441; first compound 0.253 µM) of 1.08. It also gave a relative viability (NCI-H441; first compound 0.8 µM) of 0.994, a relative viability (NCI-H441; first compound 2.53 µM) of 1.12 and a relative viability (NCI-H596; first compound 0.08 µM) of 1.13. It also gave a relative viability (NCI-H596; first compound 0.253 µM) of 1.01, a relative viability (NCI-H596; first compound 0.8 µM) of 1.06 and a relative viability (NCI-H596; first compound 2.53 µM) of 1.22. It also gave a relative viability (PC-3 [JPC-3]; first compound 0.08 µM) of 0.711, a relative viability (PC-3 [JPC-3]; first compound 0.253 µM) of 0.654 and a relative viability (PC-3 [JPC-3]; first compound 0.8 µM) of 0.733. For the same compound, the relative viability (PC-3 [JPC-3]; first compound 2.53 µM) was 0.861, the relative viability (SW 900; first compound 0.08 µM) was 0.68 and the relative viability (SW 900; first compound 0.253 µM) was 0.561. For the same compound, the relative viability (SW 900; first compound 0.8 µM) was 0.495 and the relative viability (SW 900; first compound 2.53 µM) was 0.725.
